Measurements as given in patent US20240043434A1, “COCRYSTALS OF UPADACITINIB” (AbbVie Inc., priority 2021, published 2024).
≈ marks a conversion by molar mass, not a printed value. Like-named read-outs stand apart in the source and are kept apart here.

Assays:
[1] = Storage stability determination of upadacitinib cocrystals (open dish, 40° C./75% RH); format: physicochemical; parameters: reference not given here; conditions: chemical purity after storage in open dish at 40° C./75% RH up to one month
Procedure: A storage stability study was performed to determine the short term stability for each of the five upadacitinib cocrystals disclosed herein. Samples of each upadacitinib cocrystal were stored in an open dish at 40° C./75% relative humidity (RH) for up to one month.

[2] = Aqueous solubility determination of upadacitinib cocrystals; format: physicochemical; conditions: aqueous solubility in water at 37° C., equilibrated by end-over-end tumbling for up to 24 hours
Procedure: A solubility study was performed to determine the aqueous solubility for five of the upadacitinib cocrystals disclosed herein. Sufficiently sized samples of the solid cocrystals were added to individual vials along with a measured volume of water. The water-cocrystal mixtures were equilibrated at 37° C. by end-over-end tumbling for up to 24 hours. The amount of dissolved solid was determined for each sample.

Row | Purity [1] [%] | Solubility [2] [µg/mL] | Solubility ([2]; thermodynamic from solid, read-out: Solubility) [µg/mL] | SMILES
1 | 103.9 | 11300 ± 200 |  | CC[C@@H]1CN(C(=O)NCC(F)(F)F)C[C@@H]1c1cnc2cnc3[nH]ccc3n12.O=C(O)c1ccc(O)c(O)c1 [3,4-dihydroxybenzoic acid cocrystal]
2 | 100.0 | 2530 ± 30 |  | CC(=O)Nc1ccc(C(=O)O)cc1.CC[C@@H]1CN(C(=O)NCC(F)(F)F)C[C@@H]1c1cnc2cnc3[nH]ccc3n12 [4-acetamidobenzoic acid cocrystal]
3 | 99.9 | 1470 ± 10 |  | CC[C@@H]1CN(C(=O)NCC(F)(F)F)C[C@@H]1c1cnc2cnc3[nH]ccc3n12.O=C(O)c1ccc(O)c([N+](=O)[O-])c1 [4-hydroxy-3-nitrobenzoic acid cocrystal]
4 | 102.7 | 4290 ± 50 |  | CC[C@@H]1CN(C(=O)NCC(F)(F)F)C[C@@H]1c1cnc2cnc3[nH]ccc3n12.O=C(O)c1ccc(O)cc1 [4-hydroxybenzoic acid cocrystal]
5 | 100.2 |  | 370 ± 4 (≈ 973 µM) | CC[C@@H]1CN(C(=O)NCC(F)(F)F)C[C@@H]1c1cnc2cnc3[nH]ccc3n12 [Upadacitinib Form I, (3S,4R)-3-ethyl-4-(3H-imidazo[1,2-a]pyrrolo[2,3-e]pyrazin-8-yl)-N-(2,2,2-trifluoroethyl)pyrrolidine-1-carboxamide, reference compound]

Row | SMILES | Purity [1] [%] | Solubility [2] [µg/mL] | Solubility ([2]; thermodynamic from solid, read-out: Solubility) [µg/mL]
6 | CCC1CN(C(=O)NCC(F)(F)F)CC1c1cnc2cnc3[nH]ccc3n12.O=C(O)c1cc(O)c(O)c(O)c1 (stereo not drawn) [gallic acid cocrystal] | 103.8 | 5130 ± 50 | 
